{"source": "BindingDB's records for doi:10.7270/Q2K935WV", "about": "(Nmmlsc, 2008)", "biological_target": "Isoform Bcl-X(L) of Bcl-2-like protein 1 (Bcl-xL) (Homo sapiens, UniProt Q07817)", "sequence (Q07817 whole entry G70A, canonical isoform)": "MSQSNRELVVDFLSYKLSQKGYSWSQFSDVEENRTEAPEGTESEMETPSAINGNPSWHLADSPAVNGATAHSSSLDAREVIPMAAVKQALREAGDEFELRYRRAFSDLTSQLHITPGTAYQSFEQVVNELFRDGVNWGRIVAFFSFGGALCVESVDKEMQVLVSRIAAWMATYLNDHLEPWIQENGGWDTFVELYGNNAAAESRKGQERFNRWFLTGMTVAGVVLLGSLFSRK", "assay": "Bcl-XL binding to Bim peptide disruption – biochemical, multiplexed, bead flow cytometry, human Bcl-XL, dose response (AID 1322)", "settings": "pH 7.4, 4 °C", "key": {"[1]": {"settings": "inactive by the depositor's call"}}, "note": "pEC50: −log10 of the molar value.", "data": [{"smiles": "O=c1c2c(-c3ccccc3)csc2nc2c3ccccc3c(NCCN3CCOCC3)nn12", "note": "[SMR000352519]", "values": [{"measurement": "pEC50", "setting": "[1]", "value": 6.39}]}, {"smiles": "CCN1/C(=C/C(C)=C/c2sc3ccccc3[n+]2CC)Sc2ccccc21", "note": "[SMR000354813]", "values": [{"measurement": "pEC50", "value": 4.58}]}, {"smiles": "Cc1ccnc(Nc2nc(-c3c(C)nc4sccn34)cs2)c1", "note": "[[4-(6-Methyl-imidazo[2,1-b]thiazol-5-yl)-thiazol-2-yl]-(4-methyl-pyridin-2-yl)-amine]", "values": [{"measurement": "pEC50", "setting": "[1]", "value": 4.62}]}, {"smiles": "CCOC(=O)c1nc(Nc2ccc(C(=O)OC)cc2)c2ccccc2n1", "note": "[ethyl 4-(4-methoxycarbonylanilino)quinazoline-2-carboxylate]", "values": [{"measurement": "pEC50", "setting": "[1]", "value": 4.87}]}, {"smiles": "CN(N=Cc1ccncc1)C1=NS(=O)(=O)c2ccccc21", "note": "[isonicotinaldehyde (1,1-dioxido-1,2-benzisothiazol-3-yl)(methyl)hydrazone]", "values": [{"measurement": "pEC50", "setting": "[1]", "value": 5.58}]}]}
